The record followed here is patent publication US20130085161A1, “PIPERIDINYL SUBSTITUTED 1,3-DIHYDRO-BENZOIMIDAZOL-2-YLIDENEAMINE DERIVATIVES” (NOVARTIS AG, priority 2010, published 2013).

For orientation: IC50 means the concentration at which inhibition is half-maximal.

The target of this assay is T1, BaF3-Tel-IGF1-R (Homo sapiens, UniProt P08069).
T1 construct: the kinase domain of IGF-1R (aa 976-1367) linked by a Ser-Arg-linker; expressed in transfected cells; host or cells: BaF3 murine proB-cell lymphoma cells, stably transduced
T1 sequence (P08069 976-1367): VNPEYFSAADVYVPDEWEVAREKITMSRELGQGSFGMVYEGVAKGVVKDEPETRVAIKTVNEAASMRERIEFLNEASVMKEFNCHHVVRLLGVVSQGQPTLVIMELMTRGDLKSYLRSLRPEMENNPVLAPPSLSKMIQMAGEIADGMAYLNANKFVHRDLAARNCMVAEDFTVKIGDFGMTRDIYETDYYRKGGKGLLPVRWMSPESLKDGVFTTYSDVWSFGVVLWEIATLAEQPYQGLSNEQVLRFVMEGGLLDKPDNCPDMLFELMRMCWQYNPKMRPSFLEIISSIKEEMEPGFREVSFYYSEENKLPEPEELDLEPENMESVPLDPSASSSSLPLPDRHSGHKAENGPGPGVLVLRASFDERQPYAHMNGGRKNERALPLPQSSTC
Put plainly: BaF3 cell viability assay (resazurin), 384-well format. It counts as cell-based. The conditions noted are these: 384-well plate format; 48 h incubation; resazurin dye reduction; cell proliferation/viability. From the text:
BaF3-Tel-IGF1-R and BaF3-InsR are BaF3 murine proB-cell lymphoma cell derivatives [the BaF3 cell line (also termed Ba/F3) is available from the German Collection of Microorganisms and Cell Cultures (DSMZ), Braunschweig, Germany] that have been rendered IL-3-independent by stable transduction with kinase-activating fusions between human TEL (aa 1-452) and the kinase domain of IGF-1R (aa 976-1367) linked by a Ser-Arg-linker (Boulay et al, Cancer Res 68, 3743-3751, 2008), and a fusion between human TEL (aa 1-337) and the kinase domain (aa 1015-1382) of the Insulin receptor (Melnick J S et al, Proc Natl Acad Sci USA 103, 3153-3158, 2006), respectively. Cells are cultured in RPMI-1640 (Animed #1-14F01-1) supplemented with 2% L-glutamine (Animed #5-10K50-H) and 10% fetal calf serum (FCS, Animed #2-01F16-I). Wild-type, untransfected BaF3 cells are maintained in above medium plus 10 U/ml IL-3 (mouse Interleukin-3, Roche #1380745 or Invitrogen # PMC0035) and are used to identify non-selective, generally growth-inhibitory compounds. Cells (1.5×10^4 cells per well) are seeded in 190 μl fresh medium into 96-well plates. 10 μl 20× compound solutions are added. As internal control, the kinase inhibitor PKC412 is routinely used. Control cells treated with DMSO (0.1% final concentration) serve as growth reference (set as 100% growth). In addition, a plate blank value is routinely determined in a well containing only […] of medium and no cells. IC50 determinations are performed based on eight 3-fold serial dilutions of the test compound, starting at 10 μM. Following incubation of the cells for 48 h at 37° C. and 5% CO2, the effect of inhibitors on cell viability is assessed by the resazurin sodium salt dye reduction assay (commercially known as AlamarBlue assay) basically as previously described (O'Brien J. et al., Eur. J. Biochem. 267: 5421-5426, 2000). Briefly, 20 μl dye solution is added per well and the plates incubated for 6 h at 37° C. and 5% CO2. Thereafter, fluorescence is measured using a Saphirell 96-well plate reader (TECAN, Männedorf, Switzerland) with the following settings: Excitation 544 nm and Emission 590 nm. For data analysis, the plate blank value is subtracted from all data points. The effect of a particular test compound concentration on cell proliferation and viability is expressed as percentage of the blank-corrected reading obtained for cells treated with vehicle only, which is set as 100%. IC50 values can be determined using XLfit (V4.2), applying standard four parameter logistic model #205 (IDBS, Guilford, UK) or other common curve-fitting software.
To achieve a higher throughput, the cell viability assay can also be performed in a 384-well format. Briefly, 4′500 freshly diluted cells are seeded in 54 μl/well into 384-well plates using a liquid dispenser. 6 μl 10× compound solution is added to the cell plate. As internal control, the kinase inhibitor PKC412 is routinely used. Control cells treated with DMSO (0.1% final concentration) serve as growth reference (set as 100% growth). In addition, a plate blank value is routinely determined in a well containing only 60 μl of medium and no cells. Dose-response effects are determined by 3-fold serial compound dilutions, starting at 10 μM. Following incubation of the cells for 48 h at 37° C. and 5% CO2, the effect of compounds on cell proliferation/viability is assessed by addition of 6 μl resazurin sodium salt dye solution per well. Following incubation for an additional 6 hrs at 37° C. and 5% CO2, fluorescence is measured using an Infiniti M1000 microplate reader (TECAN, Männedorf, Switzerland) with excitation and emission wavelengths set at 544 and 590 nm, respectively. For data analysis, the plate blank value is subtracted from all data points. IC50 values can be determined by four parameter logistic fitting as described above.

With `CC(=O)Nc1ccc(Cl)cc1N1CC[C@H](n2c(=N)n(Cc3cccc4[nH]ccc34)c3ccc(F)cc32)[C@@H](O)C1` (racemic) [Example 67, Rac-trans-N-(4-Chloro-2-{4-[6-fluoro-2-imino-3-(1H-indol-4-ylmethyl)-2,3-dihydro-benzoimidazol-1-yl]-3-hydroxy-piperidin-1-yl}-phenyl)-acetamide], the half-inhibitory concentration (IC50) was 23 nM.

In turn, `CC(=O)Nc1ccc(Cl)cc1N1CC[C@H](n2c(=N)n(Cc3ccccc3Cl)c3ccc(F)cc32)[C@@H](O)C1` (racemic) [Example 67.1, Rac-trans-N-(4-Chloro-2-{4-[3-(2-chloro-benzyl)-6-fluoro-2-imino-2,3-dihydro-benzo-imidazol-1-yl]-3-hydroxy-piperidin-1-yl}-phenyl)-acetamide] displayed an IC50 of 10 nM.

On to `CC(=O)Nc1ccc(C)nc1N1CC[C@H](n2c(=N)n(Cc3ccccc3Cl)c3ccc(F)cc32)[C@@H](O)C1` (racemic) [Example 67.2, Rac-trans-N-{4-[3-(2-Chloro-benzyl)-6-fluoro-2-imino-2,3-dihydro-benzoimidazol-1-yl]-3-hydroxy-6′-methyl-3,4,5,6-tetrahydro-2H-[1,2′]bipyridinyl-3′-yl}-acetamide], for which the half-inhibitory concentration (IC50) was determined as 62 nM. Take `CC(=O)Nc1ccc(C)nc1N1CC[C@H](n2c(=N)n(Cc3cccc4[nH]ccc34)c3ccc(F)cc32)[C@@H](O)C1` (racemic) [Example 67.3, Rac-trans-N-{4-[6-Fluoro-2-imino-3-(1H-indol-4-yl-methyl)-2,3-dihydro-benzo-imidazol-1-yl]-3-hydroxy-6′-methyl-3,4,5,6-tetrahydro-2H-[1,2′]bipyridinyl-3′-yl}-acetamide]: the IC50 is 167 nM.

Compound `CC(=O)Nc1ccc(C)nc1N1CC[C@H](n2c(=N)n(Cc3cccc4[nH]ccc34)c3ccccc32)[C@@H](O)C1` (racemic) [Example 67.4, Rac-trans-N-{3-Hydroxy-4-[2-imino-3-(1H-indol-4-ylmethyl)-2,3-dihydro-benzoimidazol-1-yl]-6′-methyl-3,4,5,6-tetrahydro-2H-[1,2′]bipyridinyl-3′-yl}-acetamide] displayed a 50% inhibitory concentration (IC50) of 1010 nM. The same measure for `CC(=O)Nc1ccc(Cl)cc1N1CC[C@H](n2c(=N)n(Cc3cccc4[nH]ccc34)c3ccccc32)[C@@H](O)C1` (racemic) [Example 67.5, Rac-trans-N-(4-Chloro-2-{3-hydroxy-4-[2-imino-3-(1H-indol-4-ylmethyl)-2,3-dihydro-benzoimidazol-1-yl]-piperidin-1-yl}-phenyl)-acetamide]: 30 nM; for `CC(=O)Nc1ccc(Cl)cc1N1CC[C@H](n2c(=N)n(Cc3cccc4[nH]nnc34)c3ccc(F)cc32)[C@@H](O)C1` (racemic) [Example 67.6, Rac-trans-N-(2-{4-[3-(1H-Benzo-triazol-4-ylmethyl)-6-fluoro-2-imino-2,3-dihydro-benzoimidazol-1-yl]-3-hydroxy-piperidin-1-yl}-4-chloro-phenyl)-acetamide]: 517 nM; for `CC(=O)Nc1ccc(Cl)cc1N1CC[C@H](n2c(=N)n(Cc3cccc4[nH]cnc34)c3ccc(F)cc32)[C@@H](O)C1` (racemic) [Example 67.7, Rac-trans-N-(2-{4-[3-(1H-Benzo-imidazol-4-ylmethyl)-6-fluoro-2-imino-2,3-dihydro-benzo-imidazol-1-yl]-3-hydroxy-piperidin-1-yl}-4-chloro-phenyl)-acetamide]: 644 nM. The same measure for `CC(=O)Nc1ccc(C)cc1N1CCC(n2c(=N)n(Cc3cccc4[nH]ccc34)c3ccccc32)CC1` [Example 56, N-(2-{4-[2-Imino-3-(1H-indol-4-ylmethyl)-2,3-dihydro-benzoimidazol-1-yl]-piperidin-1-yl}-4-methyl-phenyl)acetamide]: under 4.5 nM; for `COc1ccc(NC(C)=O)c(N2CCC(n3c(=N)n(Cc4cccc5[nH]ccc45)c4ccccc43)CC2)c1` [Example 56.1, N-(2-{4-[2-Imino-3-(1H-indol-4-ylmethyl)-2,3-dihydro-benzoimidazol-1-yl]-piperidin-1-yl}-4-methoxy-phenyl)-acetamide]: 35 nM. For `CC(=O)Nc1ccccc1N1CCC(n2c(=N)n(Cc3cccc4[nH]ccc34)c3ccccc32)CC1` [Example 56.2, N-(2-{4-[2-Imino-3-(1H-indol-4-ylmethyl)-2,3-dihydro-benzoimidazol-1-yl]-piperidin-1-yl}-phenyl)-acetamide] the value was 42 nM; for `CC(=O)Nc1ccc(C(F)(F)F)cc1N1CCC(n2c(=N)n(Cc3cccc4[nH]ccc34)c3ccccc32)CC1` [Example 56.3, N-(2-{4-[2-Imino-3-(1H-indol-4-ylmethyl)-2,3-dihydro-benzoimidazol-1-yl]-piperidin-1-yl}-4-trifluoromethyl-phenyl)-acetamide], 52 nM; for `CC(=O)Nc1ccc(C#N)cc1N1CCC(n2c(=N)n(Cc3cccc4[nH]ccc34)c3ccccc32)CC1` [Example 56.4, N-(4-Cyano-2-{4-[2-imino-3-(1H-indol-4-ylmethyl)-2,3-dihydro-benzoimidazol-1-yl]-piperidin-1-yl}-phenyl)-acetamide], 100 nM. For the compound `CC(=O)Nc1ccc(C)cc1N1CCC(n2c(=N)n(Cc3ccccc3Cl)c3ccccc32)CC1` [Example 56.5, N-(2-{4-[3-(2-Chloro-benzyl)-2-imino-2,3-dihydro-benzoimidazol-1-yl]-piperidin-1-yl}-4-methyl-phenyl)-acetamide], the IC50 was 51 nM. For `CC(=O)Nc1ccc(C(F)(F)F)cc1N1CCC(n2c(=N)n(Cc3ccccc3Cl)c3ccccc32)CC1` [Example 56.7, N-(2-{4-[3-(2-Chloro-benzyl)-2-imino-2,3-dihydro-benzoimidazol-1-yl]-piperidin-1-yl}-4-trifluoromethyl-phenyl)-acetamide] the value was 69 nM; for `CC(=O)Nc1ccc(C(F)(F)F)cc1N1CCC(n2c(=N)n(Cc3cccc4[nH]nnc34)c3ccccc32)CC1` [Example 56.8, N-(2-{4-[3-(1H-Benzotriazol-4-ylmethyl)-2-imino-2,3-dihydro-benzoimidazol-1-yl]-piperidin-1-yl}-4-trifluoromethyl-phenyl)-acetamide], 209 nM. For `CC(=O)Nc1ccc(C#N)cc1N1CCC(n2c(=N)n(Cc3ccccc3Cl)c3ccccc32)CC1` [Example 56.9, N-(2-{4-[3-(2-Chloro-benzyl)-2-imino-2,3-dihydro-benzoimidazol-1-yl]-piperidin-1-yl}-4-cyano-phenyl)-acetamide] the value was 82 nM. For `COc1ccc(NC(C)=O)c(N2CCC(n3c(=N)n(Cc4ccccc4Cl)c4ccccc43)CC2)c1` [Example 56.10, N-(2-{4-[3-(2-Chloro-benzyl)-2-imino-2,3-dihydro-benzoimidazol-1-yl]-piperidin-1-yl}-4-methoxy-phenyl)-acetamide] the value was 88 nM; for `CC(=O)Nc1ccc(C#N)cc1N1CCC(n2c(=N)n(Cc3cccc4[nH]ccc34)c3ccc(F)cc32)CC1` [Example 56.11, N-(4-Cyano-2-{4-[6-fluoro-2-imino-3-(1H-indol-4-ylmethyl)-2,3-dihydro-benzoimidazol-1-yl]-piperidin-1-yl}-phenyl)-acetamide], 16 nM; for `CC(=O)Nc1ccc(C)cc1N1CCC(n2c(=N)n(Cc3ccccc3Cl)c3ccc(F)cc32)CC1` [Example 56.12, N-(2-{4-[3-(2-Chloro-benzyl)-6-fluoro-2-imino-2,3-dihydro-benzoimidazol-1-yl]-piperidin-1-yl}-4-methyl-phenyl)-acetamide], 48 nM.
